Data published in ChEMBL document CHEMBL5338704, “Discovery of novel phenylhydrazone-based oxindole-thiolazoles as potent antibacterial agents toward Pseudomonas aeruginosa” (Eur J Med Chem, 2022).
≈ marks a conversion by molar mass, not a printed value. Calls of active or inactive are those of the source. The calls are words filed in the database; no cut-off is given here.

What was measured:
Escherichia coli [1] = experiment: Antibacterial activity against Escherichia coli ATCC 25922 assessed as inhibition of bacterial growth by micro-broth dilution assay; type: functional
[2] = Hemolytic activity in RBC (unknown origin) assessed as hemolysis; type: toxicity, cell-based, Erythrocyte; conditions: red blood cells (erythrocytes)
Klebsiella pneumoniae = experiment: Antibacterial activity against Klebsiella pneumoniae assessed as inhibition of bacterial growth by micro-broth dilution assay; type: functional
Staphylococcus aureus [3] = experiment: Antibacterial activity against Staphylococcus aureus ATCC 25923 assessed as inhibition of bacterial growth by micro-broth dilution assay; type: functional
Enterococcus faecalis = experiment: Antibacterial activity against Enterococcus faecalis assessed as inhibition of bacterial growth by micro-broth dilution assay; type: functional
Acinetobacter baumannii [4] = experiment: Antibacterial activity against Acinetobacter baumannii assessed as inhibition of bacterial growth by micro-broth dilution assay; type: functional
Escherichia coli [5] = experiment: Antibacterial activity against Escherichia coli assessed as inhibition of bacterial growth by micro-broth dilution assay; type: functional
Pseudomonas aeruginosa [6] = experiment: Antibacterial activity against Pseudomonas aeruginosa ATCC 27853 assessed as inhibition of bacterial growth by micro-broth dilution assay; type: functional
Staphylococcus aureus [7] = experiment: Antibacterial activity against Staphylococcus aureus assessed as inhibition of bacterial growth by micro-broth dilution assay; type: functional
Staphylococcus aureus [8] = experiment: Antibacterial activity against Staphylococcus aureus ATCC 29213 assessed as inhibition of bacterial growth by micro-broth dilution assay; type: functional
Pseudomonas aeruginosa [9] = experiment: Antibacterial activity against Pseudomonas aeruginosa assessed as inhibition of bacterial growth by micro-broth dilution assay; type: functional
Staphylococcus aureus [10] = experiment: Antibacterial activity against methicillin resistant Staphylococcus aureus assessed as inhibition of bacterial growth by micro-broth dilution assay; type: functional
Acinetobacter baumannii [11] = experiment: Potency index, ratio of norfloxacin MIC to test compound MIC for antibacterial activity against Acinetobacter baumannii assessed as inhibition of bacterial growth by micro-broth dilution assay; type: functional
Pseudomonas aeruginosa [12] = experiment: Antibacterial activity against Pseudomonas aeruginosa ATCC 27853 assessed as inhibition of bacterial growth measured after 6 hrs; type: functional, organism-based
Pseudomonas aeruginosa [13] = experiment: Antibacterial activity against Pseudomonas aeruginosa ATCC 27853 assessed as inhibition of bacterial growth at 4 times MIC measured upto 14 hrs; type: functional, organism-based

| SMILES | MIC (Escherichia coli [1]) [µg/mL] | HC50 [2] [µg/mL] | MIC (Klebsiella pneumoniae) [µg/mL] | MIC (Staphylococcus aureus [3]) [µg/mL] | MIC (Enterococcus faecalis) [µg/mL] | MIC (Acinetobacter baumannii [4]) [µg/mL] | MIC (Escherichia coli [5]) [µg/mL] | MIC (Pseudomonas aeruginosa [6]) [µg/mL] | MIC (Staphylococcus aureus [7]) [µg/mL] | MIC (Staphylococcus aureus [8]) [µg/mL] | MIC (Pseudomonas aeruginosa [9]) [µg/mL] | MIC (Staphylococcus aureus [10]) [µg/mL] | Ratio (Acinetobacter baumannii [11]) | Activity (Pseudomonas aeruginosa [12]) | Activity (Pseudomonas aeruginosa [13]) |
| --- | --- | --- | --- | --- | --- | --- | --- | --- | --- | --- | --- | --- | --- | --- | --- |
| Cc1ccc(N/N=C2\C(=O)N(CC(O)CSc3nc[nH]n3)c3ccccc32)cc1 (stereo not given) | 32 (≈ 78.3 µM) | 416 | 32 (≈ 78.3 µM) | 4 (≈ 9.79 µM) | 2 (≈ 4.9 µM) | 16 (≈ 39.2 µM) | 32 (≈ 78.3 µM) | 8 (≈ 19.6 µM) | 32 (≈ 78.3 µM) | 8 (≈ 19.6 µM) | 64 (≈ 157 µM) | 16 (≈ 39.2 µM) |  |  |  |
| Cc1ccc(N/N=C2\C(=O)N(CC(O)CSc3nnnn3C)c3ccccc32)cc1 (stereo not given) | 64 (≈ 151 µM) | 383 | 16 (≈ 37.8 µM) | 4 (≈ 9.45 µM) | 8 (≈ 18.9 µM) | 2 (≈ 4.72 µM) | 32 (≈ 75.6 µM) | 4 (≈ 9.45 µM) | 2 (≈ 4.72 µM) | 16 (≈ 37.8 µM) | 2 (≈ 4.72 µM) | 8 (≈ 18.9 µM) | 2 |  |  |
| Cn1ccnc1SCC(O)CN1C(=O)/C(=N\Nc2ccccc2)c2ccccc21 (stereo not given) | 128 (≈ 314 µM) | 441 | 128 (≈ 314 µM) | 256 (≈ 628 µM) | 128 (≈ 314 µM) | 128 (≈ 314 µM) | 128 (≈ 314 µM) | 128 (≈ 314 µM) | 128 (≈ 314 µM) | 128 (≈ 314 µM) | 256 (≈ 628 µM) | 128 (≈ 314 µM) |  |  |  |
| CCn1cc(C(=O)O)c(=O)c2cc(F)c(N3CCNCC3)cc21 [NORFLOXACIN] | 2 (≈ 6.26 µM) |  | 2 (≈ 6.26 µM) | 4 (≈ 12.5 µM) | 4 (≈ 12.5 µM) | 4 (≈ 12.5 µM) | 8 (≈ 25.1 µM) | 4 (≈ 12.5 µM) | 2 (≈ 6.26 µM) | 2 (≈ 6.26 µM) | 8 (≈ 25.1 µM) | 8 (≈ 25.1 µM) |  | Active | Active |
| Cn1ccnc1SCC(O)CN1C(=O)/C(=N\Nc2ccc(Cl)cc2)c2ccccc21 (stereo not given) | 128 (≈ 290 µM) | 151 | 2 (≈ 4.53 µM) | 256 (≈ 579 µM) | 4 (≈ 9.05 µM) | 16 (≈ 36.2 µM) | 32 (≈ 72.4 µM) | 32 (≈ 72.4 µM) | 16 (≈ 36.2 µM) | 64 (≈ 145 µM) | 64 (≈ 145 µM) | 128 (≈ 290 µM) |  |  |  |
| Cn1nnnc1SCC(O)CN1C(=O)/C(=N\Nc2ccc(Cl)cc2)c2ccccc21 (stereo not given) | 4 (≈ 9.01 µM) | > 512 | 2 (≈ 4.51 µM) | 32 (≈ 72.1 µM) | 64 (≈ 144 µM) | 1 (≈ 2.25 µM) | 16 (≈ 36 µM) | 32 (≈ 72.1 µM) | 32 (≈ 72.1 µM) | 256 (≈ 577 µM) | 16 (≈ 36 µM) | 16 (≈ 36 µM) | 2 |  |  |
| Cc1ccc(N/N=C2\C(=O)N(CC(O)CSc3nccn3C)c3ccccc32)cc1 (stereo not given) | 128 (≈ 304 µM) | 358 | 128 (≈ 304 µM) | 128 (≈ 304 µM) | 128 (≈ 304 µM) | 128 (≈ 304 µM) | 64 (≈ 152 µM) | 256 (≈ 607 µM) | 128 (≈ 304 µM) | 256 (≈ 607 µM) | 128 (≈ 304 µM) | 256 (≈ 607 µM) |  |  |  |
| Cn1nnnc1SCC(O)CN1C(=O)C(=O)c2ccccc21 (stereo not given) | 16 (≈ 50.1 µM) | 335 | 16 (≈ 50.1 µM) | 128 (≈ 401 µM) | 64 (≈ 200 µM) | 64 (≈ 200 µM) | 64 (≈ 200 µM) | 32 (≈ 100 µM) | 32 (≈ 100 µM) | 64 (≈ 200 µM) | 64 (≈ 200 µM) | 64 (≈ 200 µM) |  |  |  |
| Cn1nnnc1SCC(O)CN1C(=O)/C(=N\Nc2ccccc2)c2ccccc21 (stereo not given) | 16 (≈ 39.1 µM) | 406 | 2 (≈ 4.88 µM) | 128 (≈ 313 µM) | 32 (≈ 78.1 µM) | 2 (≈ 4.88 µM) | 32 (≈ 78.1 µM) | 32 (≈ 78.1 µM) | 64 (≈ 156 µM) | 128 (≈ 313 µM) | 16 (≈ 39.1 µM) | 16 (≈ 39.1 µM) | 2 |  |  |
| O=C1/C(=N\Nc2ccc(Cl)cc2)c2ccccc2N1CC(O)CSc1nc[nH]n1 (stereo not given) | 8 (≈ 18.7 µM) | 350 | 4 (≈ 9.33 µM) | 16 (≈ 37.3 µM) | 4 (≈ 9.33 µM) | 128 (≈ 298 µM) | 16 (≈ 37.3 µM) | 32 (≈ 74.6 µM) | 32 (≈ 74.6 µM) | 8 (≈ 18.7 µM) | 16 (≈ 37.3 µM) | 16 (≈ 37.3 µM) |  |  |  |
| O=C1/C(=N\Nc2ccccc2)c2ccccc2N1CC(O)CSc1nc[nH]n1 (stereo not given) | 64 (≈ 162 µM) | 375 | 128 (≈ 324 µM) | 16 (≈ 40.6 µM) | 32 (≈ 81.1 µM) | 128 (≈ 324 µM) | 128 (≈ 324 µM) | 128 (≈ 324 µM) | 32 (≈ 81.1 µM) | 128 (≈ 324 µM) | 16 (≈ 40.6 µM) | 128 (≈ 324 µM) |  |  |  |
| Cn1ccnc1SCC(O)CN1C(=O)/C(=N\Nc2ccc([N+](=O)[O-])cc2)c2ccccc21 (stereo not given) | 128 (≈ 283 µM) | > 512 | 32 (≈ 70.7 µM) | 64 (≈ 141 µM) | 128 (≈ 283 µM) | 64 (≈ 141 µM) | 32 (≈ 70.7 µM) | 16 (≈ 35.4 µM) | 128 (≈ 283 µM) | 128 (≈ 283 µM) | 256 (≈ 566 µM) | 64 (≈ 141 µM) |  |  |  |
| O=C1/C(=N\Nc2ccc([N+](=O)[O-])cc2)c2ccccc2N1CC(O)CSc1nc[nH]n1 (stereo not given) | 128 (≈ 291 µM) | > 512 | 64 (≈ 146 µM) | 128 (≈ 291 µM) | 64 (≈ 146 µM) | 32 (≈ 72.8 µM) | 64 (≈ 146 µM) | 64 (≈ 146 µM) | 32 (≈ 72.8 µM) | 32 (≈ 72.8 µM) | 32 (≈ 72.8 µM) | 32 (≈ 72.8 µM) |  |  |  |
| Cn1nnnc1SCC(O)CN1C(=O)/C(=N\Nc2ccc([N+](=O)[O-])cc2)c2ccccc21 (stereo not given) | 16 (≈ 35.2 µM) | 262 | 16 (≈ 35.2 µM) | 4 (≈ 8.8 µM) | 8 (≈ 17.6 µM) | 64 (≈ 141 µM) | 64 (≈ 141 µM) | 4 (≈ 8.8 µM) | 64 (≈ 141 µM) | 16 (≈ 35.2 µM) | 2 (≈ 4.4 µM) | 8 (≈ 17.6 µM) |  |  |  |
| Cn1ccnc1SCC(O)CN1C(=O)C(=O)c2ccccc21 (stereo not given) | 64 (≈ 202 µM) | > 512 | 64 (≈ 202 µM) | 32 (≈ 101 µM) | 128 (≈ 403 µM) | 64 (≈ 202 µM) | 128 (≈ 403 µM) | 64 (≈ 202 µM) | 64 (≈ 202 µM) | 64 (≈ 202 µM) | 64 (≈ 202 µM) | 128 (≈ 403 µM) |  |  |  |
| O=C1C(=O)N(CC(O)CSc2nc[nH]n2)c2ccccc21 (stereo not given) | 128 (≈ 421 µM) | 285 | 32 (≈ 105 µM) | 32 (≈ 105 µM) | 64 (≈ 210 µM) | 64 (≈ 210 µM) | 64 (≈ 210 µM) | 128 (≈ 421 µM) | 128 (≈ 421 µM) | 64 (≈ 210 µM) | 16 (≈ 52.6 µM) | 64 (≈ 210 µM) |  |  |  |
| Cn1nnnc1SCC(O)CN1C(=O)/C(=N\Nc2ccc(C(=O)O)cc2)c2ccccc21 (stereo not given) | 16 (≈ 35.3 µM) | 292 | 32 (≈ 70.6 µM) | 16 (≈ 35.3 µM) | 8 (≈ 17.6 µM) | 32 (≈ 70.6 µM) | 32 (≈ 70.6 µM) | 32 (≈ 70.6 µM) | 16 (≈ 35.3 µM) | 16 (≈ 35.3 µM) | 128 (≈ 282 µM) | 4 (≈ 8.82 µM) |  |  |  |
| O=C(O)c1ccc(N/N=C2\C(=O)N(CC(O)CSc3nc[nH]n3)c3ccccc32)cc1 (stereo not given) | 32 (≈ 73 µM) | 282 | 2 (≈ 4.56 µM) | 8 (≈ 18.2 µM) | 2 (≈ 4.56 µM) | 16 (≈ 36.5 µM) | 8 (≈ 18.2 µM) | 16 (≈ 36.5 µM) | 64 (≈ 146 µM) | 4 (≈ 9.12 µM) | 64 (≈ 146 µM) | 4 (≈ 9.12 µM) |  |  |  |
